For 16 molecules, IC50 results are on record in patent US8653092B2, “Tetrahydro-pyrido-pyrimidine derivatives” (Novartis AG, priority 2010, dated 2014).

Like-named read-outs stand apart in the source and are kept apart here.

For test [1], the target named is human phosphoinositide-3 kinase (PI3K) delta (Homo sapiens (Human), UniProt O00329). As to the kind of experiment: PI3K-mediated Akt 1/2 (S473) phosphorylation in Rat-1 cells (AlphaScreen SureFire). The format is cell-based. To be noted: Rat-1 cells overexpressing myristoylated human PI3K delta, p-Akt (Ser473); read-out: Cell PI3Kδ/ IC50 [umol l − 1]. Here is the method: Rat-1 cells stably overexpressing a myristoylated form of the catalytic subunit of human phosphoinositide-3 kinase (PI3K) alpha, beta or delta were plated in 384-well plates at a density of 7500 (PI3K alpha), 6200 (PI3K beta), or 4000 (PI3K delta) cells in 30 ul complete growth medium (Dulbecco's modified Eagle's medium (DMEM high glucose) supplemented with 10% (v/v) fetal bovine serum, 1% (v/v) MEM non essential amino acids, 10 mM HEPES, 2 mM L-glutamine, 10 μg/mL puromycin and 1% (v/v) Penicillin/Streptomycin) and were incubated at […]/5% CO2/95% humidity for 24 h. Compounds were diluted in 384-well compound plates to obtain 8-point serial dilutions for 40 test compounds in 90% DMSO, as well as 4 reference compounds plus 16 high controls and 16 low (inhibited) controls. Predilution plates were prepared by dispensing pipetting 250 nl of compound solutions into 384-well polypropylen plates using a Hummingwell nanoliter dispensor. Compounds were prediluted by the addition of 49.75 ul complete growth medium. 10 ul of prediluted compound solution were transferred to the cell plate using a 384-well pipettor, resulting in a final DMSO concentration of 0.11%. Cells were incubated for 1 h at […]/5% CO2/95% humidity. The supernatant was removed, the cells were lysed in 20 ul of lysis buffer for AlphaScreen® SureFire® detection.
For detection of p-AKT (Ser473), the SureFire® p-Akt 1/2 (Ser473) Assay Kit (PerkinElmer, U.S.A) was used. 5 ul of cell lysate was transferred to 384-well low volume Proxiplates for detection using a 384-well pipettor. Addition of AlphaScreen® SureFire® reagents was done according to the manufacturer's protocol. First, 5 ul of reaction buffer plus activation buffer mix containing AlphaScreen® acceptor beads was added, the plate was sealed, and incubated on a plate shaker for 2 hours at room temperature. Second, 2 ul of dilution buffer containing AlphaScreen® donor beads was added, and the plate was incubated on plate shaker as above for a further 2 hours. The plate was read on an AlphaScreen® compatible plate reader, using standard AlphaScreen® settings.

Another test deals with PI3K alpha (Homo sapiens (Human), UniProt P42336). Nature of the test: Enzymatic PI3K alpha isoform inhibition (lipid kinase, Kinase-Glo luminescence). The format is biochemical. To be noted: enzymatic assay.
Another test relates to murine B cells. Nature of the test: Murine B cell activation: CD86 upregulation after anti-IgM stimulation. It counts as cell-based, mouse. To be noted: read-out: mCD86/IC50 CD86 [nmol l − 1]. Here is the method:
Spleens from Balb/c mice were collected, splenocytes were isolated and washed twice with RPMI containing 10% foetal bovine serum (FBS), 10 mM HEPES, 100 Units/mL penicilline/streptomycine. RPMI supplemented in this way is subsequently referred to as medium. The cells were adjusted to 2.5×10^6 cells/mL in medium and 200 μl cell suspension (5×10^6 cells) were added to the appropriate wells of 96 well plates.
Then the cells were stimulated by adding 50 μl anti-IgM mAb in medium (final concentration: 30 μg/mL). After incubation for 24 hours at 37° C., the cells were stained with the following antibody cocktails: anti-mouse CD86-FITC, anti-mouse CD69-PerCP-Cy5.5, anti-mouse CD19-PerCP for the assessment of B cells, and anti-mouse CD3-FITC, anti-mouse CD69-PE for the assessment of T cells (2 μl of each antibody/well). After one hour at room temperature (RT) in the dark the cells were transferred to 96 Deepwell plates. The cells were washed once with 1 mL PBS containing 2% FBS and after re-suspension in 200 μl the samples were analyzed on a FACS Calibur flow cytometer. Lymphocytes were gated in the FSC/SSC dot plot according to size and granularity and further analyzed for expression of CD19, CD3 and activation markers (CD86, CD69). Data were calculated from dot blots as percentage of cells positively stained for activation markers within the CD19+ or CD3+ population using BD CellQest Software.
For assessing the inhibitory property of compounds, compounds were first dissolved and diluted in DMSO followed by a 1:50 dilution in medium. Splenocytes from Balb/c mice were isolated, re-suspended and transfered to 96 well plates as described above (200 μl/well). The diluted compounds or solvent were added to the plates (25 μl) and incubated at 37° C. for 1 hour. Then the cultures were stimulated with 25 μl anti-IgM mAb/well (final concentration […]) for 24 hours at 37° C. and stained with anti-mouse CD86-FITC and anti-mouse CD19-PerCP (2 μl of each antibody/well). CD86 expression on CD19 positive B cells was quantified by flow cytometry as described above.

The next test addresses PI3K delta (Homo sapiens (Human), UniProt O00329). As to the kind of experiment: Enzymatic PI3K delta isoform inhibition (lipid kinase, Kinase-Glo luminescence). The format is biochemical. To be noted: enzymatic assay.
Setting [2] is: Balb/c mouse splenocytes, anti-IgM 24 h, CD86 on CD19+ B cells.

Chain of PI3K delta (O00329 other isoform, or with tags, fused parts or gaps linker GGGGGG): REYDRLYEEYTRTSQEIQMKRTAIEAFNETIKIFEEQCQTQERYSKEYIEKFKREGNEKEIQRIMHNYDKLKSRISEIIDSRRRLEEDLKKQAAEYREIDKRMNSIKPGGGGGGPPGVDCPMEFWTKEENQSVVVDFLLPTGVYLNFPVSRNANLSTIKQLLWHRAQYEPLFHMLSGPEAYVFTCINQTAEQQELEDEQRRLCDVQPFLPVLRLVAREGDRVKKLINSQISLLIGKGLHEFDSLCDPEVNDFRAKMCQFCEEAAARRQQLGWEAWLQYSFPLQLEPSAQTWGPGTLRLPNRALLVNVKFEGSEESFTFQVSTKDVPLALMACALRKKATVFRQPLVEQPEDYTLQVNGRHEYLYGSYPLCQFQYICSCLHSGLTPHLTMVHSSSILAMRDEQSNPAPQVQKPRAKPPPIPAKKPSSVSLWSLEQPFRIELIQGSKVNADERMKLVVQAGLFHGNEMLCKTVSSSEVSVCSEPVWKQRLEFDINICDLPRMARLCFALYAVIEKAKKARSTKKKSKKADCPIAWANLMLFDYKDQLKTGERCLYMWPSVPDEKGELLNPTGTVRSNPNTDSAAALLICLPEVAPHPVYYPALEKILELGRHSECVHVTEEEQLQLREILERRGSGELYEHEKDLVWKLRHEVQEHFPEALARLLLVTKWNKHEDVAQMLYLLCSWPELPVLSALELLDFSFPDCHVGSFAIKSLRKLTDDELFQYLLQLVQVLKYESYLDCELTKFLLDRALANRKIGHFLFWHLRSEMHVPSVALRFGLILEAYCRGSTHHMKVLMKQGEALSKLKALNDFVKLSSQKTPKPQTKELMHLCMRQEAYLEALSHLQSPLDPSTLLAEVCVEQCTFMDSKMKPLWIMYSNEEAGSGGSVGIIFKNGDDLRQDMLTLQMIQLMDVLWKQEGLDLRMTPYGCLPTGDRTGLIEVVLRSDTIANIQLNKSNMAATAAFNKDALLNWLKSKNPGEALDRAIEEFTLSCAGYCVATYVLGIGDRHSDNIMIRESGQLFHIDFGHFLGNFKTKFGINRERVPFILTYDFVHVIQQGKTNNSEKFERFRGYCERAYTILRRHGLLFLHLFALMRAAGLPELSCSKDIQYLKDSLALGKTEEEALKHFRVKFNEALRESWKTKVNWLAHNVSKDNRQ
Chain of PI3K alpha (P42336 other isoform, or with tags, fused parts or gaps): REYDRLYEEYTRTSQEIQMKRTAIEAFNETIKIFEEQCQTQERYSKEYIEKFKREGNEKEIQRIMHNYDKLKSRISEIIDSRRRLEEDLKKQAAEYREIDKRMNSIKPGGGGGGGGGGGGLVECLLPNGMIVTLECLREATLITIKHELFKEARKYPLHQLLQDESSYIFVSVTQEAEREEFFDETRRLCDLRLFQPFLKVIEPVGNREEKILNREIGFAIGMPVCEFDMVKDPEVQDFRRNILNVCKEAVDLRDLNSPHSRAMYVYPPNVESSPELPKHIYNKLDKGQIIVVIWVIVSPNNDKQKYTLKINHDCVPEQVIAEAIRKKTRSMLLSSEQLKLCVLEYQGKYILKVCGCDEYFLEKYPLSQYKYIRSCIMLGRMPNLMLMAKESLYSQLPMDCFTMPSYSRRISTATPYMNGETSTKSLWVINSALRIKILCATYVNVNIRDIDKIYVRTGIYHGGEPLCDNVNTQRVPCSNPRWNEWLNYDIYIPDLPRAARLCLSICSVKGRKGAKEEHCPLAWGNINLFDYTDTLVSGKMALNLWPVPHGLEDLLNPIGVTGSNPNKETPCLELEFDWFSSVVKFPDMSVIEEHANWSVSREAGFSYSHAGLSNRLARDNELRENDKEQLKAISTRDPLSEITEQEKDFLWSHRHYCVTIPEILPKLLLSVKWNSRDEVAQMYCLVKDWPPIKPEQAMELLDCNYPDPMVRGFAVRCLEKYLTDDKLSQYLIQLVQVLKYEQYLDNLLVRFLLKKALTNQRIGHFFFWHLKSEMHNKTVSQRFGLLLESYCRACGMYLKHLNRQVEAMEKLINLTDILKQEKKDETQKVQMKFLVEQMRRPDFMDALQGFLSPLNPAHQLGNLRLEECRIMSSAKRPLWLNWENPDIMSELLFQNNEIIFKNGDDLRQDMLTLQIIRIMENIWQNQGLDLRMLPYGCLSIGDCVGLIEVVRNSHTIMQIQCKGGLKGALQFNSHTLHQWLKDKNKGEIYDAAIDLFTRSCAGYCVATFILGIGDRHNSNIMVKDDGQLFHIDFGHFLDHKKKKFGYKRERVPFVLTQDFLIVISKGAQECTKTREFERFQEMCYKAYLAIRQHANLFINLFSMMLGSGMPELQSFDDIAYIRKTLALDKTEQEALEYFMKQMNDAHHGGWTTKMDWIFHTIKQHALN
Chain of human phosphoinositide-3 kinase (PI3K) delta (O00329 whole entry): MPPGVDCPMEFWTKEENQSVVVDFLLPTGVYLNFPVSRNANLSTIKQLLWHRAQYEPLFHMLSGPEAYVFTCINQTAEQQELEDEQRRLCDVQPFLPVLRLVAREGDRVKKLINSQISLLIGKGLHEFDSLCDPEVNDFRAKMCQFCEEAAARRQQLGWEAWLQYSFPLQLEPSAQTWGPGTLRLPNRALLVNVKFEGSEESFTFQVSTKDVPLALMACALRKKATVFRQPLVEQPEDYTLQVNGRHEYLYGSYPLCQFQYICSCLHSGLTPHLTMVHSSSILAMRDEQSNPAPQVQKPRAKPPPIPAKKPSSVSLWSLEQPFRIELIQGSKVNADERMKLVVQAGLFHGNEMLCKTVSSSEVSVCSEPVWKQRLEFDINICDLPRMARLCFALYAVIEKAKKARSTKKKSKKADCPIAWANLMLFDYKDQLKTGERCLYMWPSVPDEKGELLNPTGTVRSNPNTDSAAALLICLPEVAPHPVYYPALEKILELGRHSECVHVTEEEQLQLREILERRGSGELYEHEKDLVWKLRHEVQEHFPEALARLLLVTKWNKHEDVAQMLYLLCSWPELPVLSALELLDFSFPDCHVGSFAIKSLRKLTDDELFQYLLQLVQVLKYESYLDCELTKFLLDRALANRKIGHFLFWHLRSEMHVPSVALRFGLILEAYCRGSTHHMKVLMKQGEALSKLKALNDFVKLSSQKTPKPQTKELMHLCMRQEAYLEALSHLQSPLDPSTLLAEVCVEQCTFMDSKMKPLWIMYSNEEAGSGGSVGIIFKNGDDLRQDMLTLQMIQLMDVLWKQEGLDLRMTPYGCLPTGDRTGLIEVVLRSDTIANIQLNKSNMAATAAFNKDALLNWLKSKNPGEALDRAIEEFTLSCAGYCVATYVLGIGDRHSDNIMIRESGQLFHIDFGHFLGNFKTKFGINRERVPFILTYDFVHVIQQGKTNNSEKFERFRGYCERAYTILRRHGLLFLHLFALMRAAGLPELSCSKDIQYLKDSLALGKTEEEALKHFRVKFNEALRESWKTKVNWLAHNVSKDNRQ
Chain of human phosphoinositide-3 kinase (PI3K) delta (Q63787 whole entry partner): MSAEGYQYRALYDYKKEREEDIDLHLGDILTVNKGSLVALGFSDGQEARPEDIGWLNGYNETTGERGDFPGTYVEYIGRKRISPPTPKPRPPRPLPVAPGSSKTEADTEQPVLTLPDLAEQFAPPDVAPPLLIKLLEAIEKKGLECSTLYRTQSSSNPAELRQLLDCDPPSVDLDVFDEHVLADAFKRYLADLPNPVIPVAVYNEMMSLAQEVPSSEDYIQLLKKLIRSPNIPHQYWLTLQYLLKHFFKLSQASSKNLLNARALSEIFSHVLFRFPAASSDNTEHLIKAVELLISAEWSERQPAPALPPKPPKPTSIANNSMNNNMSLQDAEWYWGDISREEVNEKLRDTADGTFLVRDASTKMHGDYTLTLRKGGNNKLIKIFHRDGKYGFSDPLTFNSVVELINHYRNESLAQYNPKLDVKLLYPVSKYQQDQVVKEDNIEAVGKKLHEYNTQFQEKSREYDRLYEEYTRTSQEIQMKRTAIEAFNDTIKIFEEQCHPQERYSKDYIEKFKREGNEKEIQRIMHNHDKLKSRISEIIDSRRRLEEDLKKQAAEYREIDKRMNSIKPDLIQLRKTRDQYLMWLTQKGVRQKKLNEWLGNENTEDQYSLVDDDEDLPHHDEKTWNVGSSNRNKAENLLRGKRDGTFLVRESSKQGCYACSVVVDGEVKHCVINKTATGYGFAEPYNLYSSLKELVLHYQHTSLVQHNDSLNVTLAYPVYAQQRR

On to `COc1cc(N2CCc3ncnc(O[C@H]4CCN(C(=O)C5CCOCC5)C4)c3C2)cnc1OC` [Example 5, {(S)-3-[6-(5,6-Dimethoxy-pyridin-3-yl)-5,6,7,8-tetrahydro-pyrido[4,3-d]pyrimidin-4-yloxy]-pyrrolidin-1-yl}-(tetrahydro-pyran-4-yl)-methanone], for which the IC50 was 0.455 µM in test [1], 0.749 µM against PI3K alpha, 0.125 µM in the test with murine B cells (setting [2]) and 0.02 µM on PI3K delta.
On the same counts, the results for `COc1ncc(N2CCc3ncnc(O[C@H]4CCN(C(=O)c5cn(C)cn5)C4)c3C2)cc1C` [Example 20, {(S)-3-[6-(6-Methoxy-5-methyl-pyridin-3-yl)-5,6,7,8-tetrahydro-pyrido[4,3-d]pyrimidin-4-yloxy]-pyrrolidin-1-yl}-(1-methyl-1H-imidazol-4-yl)-methanone] are 0.254 µM, 1.84 µM, 0.12 µM and 0.048 µM.
On to `COc1ncc(N2CCc3ncnc(O[C@H]4CCN(C(=O)c5oc(C)nc5C)C4)c3C2)cc1C#N` [Example 28, 5-{4-[(S)-1-(2,4-Dimethyl-oxazole-5-carbonyl)-pyrrolidin-3-yloxy]-7,8-dihydro-5H-pyrido[4,3-d]pyrimidin-6-yl}-2-methoxy-nicotinonitrile], for which the IC50 in test [1] is 0.268 µM; against PI3K alpha, 1.21 µM; in the test on murine B cells (setting [2]) it was 0.0716 µM; against PI3K delta it was 0.004 µM.
On the same counts, the results for `COc1ncc(N2CCc3ncnc(O[C@H]4CCN(c5ccccn5)C4)c3C2)cc1C(F)(F)F` [Example 65, 6-(6-Methoxy-5-trifluoromethyl-pyridin-3-yl)-4-((S)-1-pyridin-2-yl-pyrrolidin-3-yloxy)-5,6,7,8-tetrahydro-pyrido[4,3-d]pyrimidine] are 0.191 µM, 0.738 µM, 0.57 µM and 0.023 µM.
On to `CCC(=O)N1CC[C@H](Nc2ncnc3c2CN(c2cnc(OC)c(C(F)(F)F)c2)CC3)C1` [Example 67, 1-{(S)-3-[6-(6-Methoxy-5-trifluoromethyl-pyridin-3-yl)-5,6,7,8-tetrahydro-pyrido[4,3-d]pyrimidin-4-ylamino]-pyrrolidin-1-yl}-propan-1-one], for which the IC50 worked out at 0.262 µM on PI3K alpha and 0.0483 µM in the test on murine B cells (Mus musculus, 24 h).
Take `COc1ncc(N2CCc3ncnc(N[C@H]4CCN(C(=O)c5cocn5)C4)c3C2)cc1C` [Example 79, {(S)-3-[6-(6-Methoxy-5-methyl-pyridin-3-yl)-5,6,7,8-tetrahydro-pyrido[4,3-d]pyrimidin-4-ylamino]-pyrrolidin-1-yl}-oxazol-4-yl-methanone]: the IC50 against PI3K alpha is 0.781 µM; against PI3K delta it was 0.017 µM.
Consider `COc1ncc(N2CCc3ncnc(N[C@H]4CCN(C(=O)C5CCOC(C)(C)C5)C4)c3C2)cc1C` (stereo partly drawn) [Example 80, (2,2-Dimethyl-tetrahydro-pyran-4-yl)-{(S)-3-[6-(6-methoxy-5-methyl-pyridin-3-yl)-5,6,7,8-tetrahydro-pyrido[4,3-d]pyrimidin-4-ylamino]-pyrrolidin-1-yl}-methanone], for which the figures for the IC50 against PI3K alpha and against PI3K delta were 0.43 µM and 0.016 µM, respectively.
On the same counts, the results for `O=C(C1CCOCC1)N1CC[C@H](Nc2ncnc3c2CN(c2cncc(C(F)(F)F)c2)CC3)C1` [Example 84, (Tetrahydro-pyran-4-yl)-{(S)-3-{6-(5-(trifluoromethyl)pyridin-3-yl)-5,6,7,8-tetrahydropyrido[4,3-d]pyrimidin-4-ylamino)pyrrolidin-1-yl}-methanone] are 0.058 µM and 0.009 µM.
On the same counts, the results for `COc1ncc(N2CCc3ncnc(O[C@H]4CCN(C(=O)N5CCOCC5)C4)c3C2)cc1C(F)(F)F` [Example 86, -{(S)-3-[6-(6-Methoxy-5-trifluoromethyl-pyridin-3-yl)-5,6,7,8-tetrahydro-pyrido[4,3-d]pyrimidin-4-yloxy]-pyrrolidin-1-yl}-morpholin-4-yl-methanone] are 1.33 µM and 0.02 µM.
Turning to `COc1ncc(N2CCc3ncnc(O[C@H]4CCN(C(=O)N5CCC(O)CC5)C4)c3C2)cc1C(F)(F)F` [Example 87, (4-Hydroxy-piperidin-1-yl)-{(S)-3-[6-(6-methoxy-5-trifluoromethyl-pyridin-3-yl)-5,6,7,8-tetrahydro-pyrido[4,3-d]pyrimidin-4-yloxy]-pyrrolidin-1-yl}-methanone], the IC50 on PI3K alpha turned out to be 0.452 µM; against PI3K delta it was 0.012 µM.
With `COc1ncc(N2CCc3ncnc(O[C@H]4CCN(C(=O)N(C)CCO)C4)c3C2)cc1C(F)(F)F` [Example 88, (S)-3-[6-(6-Methoxy-5-trifluoromethyl-pyridin-3-yl)-5,6,7,8-tetrahydro-pyrido[4,3-d]pyrimidin-4-yloxy]-pyrrolidine-1-carboxylic acid (2-hydroxy-ethyl)-methyl-amide], the IC50 was 1.34 µM at PI3K alpha and 0.034 µM on PI3K delta.
For `COc1ncc(N2CCc3ncnc(O[C@H]4CCN(C(=O)N5CCN(C(C)=O)CC5)C4)c3C2)cc1C(F)(F)F` [Example 89, 1-(4-{(S)-3-[6-(6-methoxy-5-trifluoromethyl-pyridin-3-yl)-5,6,7,8-tetrahydro-pyrido[4,3-d]pyrimidin-4-yloxy]-pyrrolidine-1-carbonyl}-piperazin-1-yl)-ethanone], the IC50 on PI3K alpha was 1.19 µM; on PI3K delta it was 0.029 µM.
On the same counts, the results for `COc1ncc(N2CCc3ncnc(O[C@H]4CCN(C(=O)c5cocn5)C4)c3C2)cc1C(F)(F)F` [Example 91, {(S)-3-[6-(6-methoxy-5-trifluoromethyl-pyridin-3-yl)-5,6,7,8-tetrahydro-pyrido[4,3-d]pyrimidin-4-yloxy]-pyrrolidin-1-yl}-oxazol-4-yl-methanone] are 0.924 µM and 0.011 µM.
On the same counts, the results for `COc1ncc(N2CCc3ncnc(O[C@H]4CCN(C(=O)C5CCN(C(C)=O)CC5)C4)c3C2)cc1C(F)(F)F` [Example 92, 1-(4-{(S)-3-[6-(6-Methoxy-5-trifluoromethyl-pyridin-3-yl)-5,6,7,8-tetrahydro-pyrido[4,3-d]pyrimidin-4-yloxy]-pyrrolidine-1-carbonyl}-piperidin-1-yl)-ethanone] are 2.54 µM and 0.009 µM.
On the same counts, the results for `COc1ncc(N2CCc3ncnc(O[C@H]4CCN(C(=O)c5cncn5C)C4)c3C2)cc1C(F)(F)F` [Example 93, {(S)-3-[6-(6-Methoxy-5-trifluoromethyl-pyridin-3-yl)-5,6,7,8-tetrahydro-pyrido[4,3-d]pyrimidin-4-yloxy]-pyrrolidin-1-yl}-(3-methyl-3H-imidazol-4-yl)-methanone] are 0.872 µM and 0.024 µM.
In the case of `COc1ccc(N2CCc3ncnc(O[C@H]4CCN(C(=O)C5CCOCC5)C4)c3C2)cn1` [Example 95, {(S)-3-[6-(6-Methoxy-pyridin-3-yl)-5,6,7,8-tetrahydro-pyrido[4,3-d]pyrimidin-4-yloxy)pyrrolidin-1-yl}-(tetrahydro-pyran-4-yl)-methanone], the IC50 on PI3K alpha worked out at 0.757 µM; against PI3K delta, 0.053 µM.
